Measured values as given in publication PMC3726224 (Developmental cell, 2013).

How the values were obtained:
Assay type in all cases: biochemical
ALR = ALR (Homo sapiens, UniProt P55789); assay: Amplex Red-HRP sulfhydryl oxidase assay
Erv1 = molecular target: T1, Erv1 (Saccharomyces cerevisiae, UniProt P27882); assay: Amplex Red-HRP sulfhydryl oxidase assay with recombinant Erv1
T1 sequence (P27882 1-189): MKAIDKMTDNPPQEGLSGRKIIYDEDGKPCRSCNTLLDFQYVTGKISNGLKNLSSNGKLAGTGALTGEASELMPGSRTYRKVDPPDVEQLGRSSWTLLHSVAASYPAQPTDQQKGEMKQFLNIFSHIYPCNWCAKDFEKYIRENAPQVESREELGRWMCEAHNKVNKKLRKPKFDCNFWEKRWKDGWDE

Erv2 = molecular target: T2, Erv2 (Saccharomyces cerevisiae, UniProt Q12284); assay: Amplex Red-HRP sulfhydryl oxidase assay
T2 sequence (Q12284 1-196): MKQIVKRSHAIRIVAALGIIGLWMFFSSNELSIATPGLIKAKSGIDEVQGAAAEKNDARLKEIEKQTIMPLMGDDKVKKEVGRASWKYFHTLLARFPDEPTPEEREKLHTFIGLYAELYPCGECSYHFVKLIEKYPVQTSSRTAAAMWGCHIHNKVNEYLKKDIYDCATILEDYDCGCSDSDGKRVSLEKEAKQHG

ALR, sequence (P55789 whole entry): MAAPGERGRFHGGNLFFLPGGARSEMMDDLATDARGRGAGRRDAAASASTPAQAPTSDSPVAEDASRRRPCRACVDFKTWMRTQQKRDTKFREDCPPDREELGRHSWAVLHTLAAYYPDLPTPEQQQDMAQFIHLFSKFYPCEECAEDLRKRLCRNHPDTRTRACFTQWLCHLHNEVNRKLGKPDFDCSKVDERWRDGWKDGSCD

Oc1c(Cl)cc(Cl)cc1C=Nc1ccc(Nc2ccccc2)cc1 [MitoBloCK-6]
IC50 (ALR): 700 nM
IC50 (Erv1): 900 nM
IC50 (Erv2): 1400 nM
